Biological target: histone deacetylase HD-1, RPD3 homologue (Zea mays)
Test: Inhibition of in vitro enzyme activity measured in a highly purified maize Histone deacetylase 1 preparation

| IC50 | SMILES |
| --- | --- |
| 40 nM | O=C(CCCCCCC(=O)N[C@@H](Cc1ccccc1)C(=O)NCc1ccccc1)NO [Octanedioic acid ((S)-1-benzylcarbamoyl-2-phenyl-ethyl)-amide hydroxyamide] |
| 25 nM | O=C(CCCCCCC(=O)N[C@@H](Cc1ccccc1)C(=O)NCCc1ccccc1)NO [Octanedioic acid hydroxyamide ((S)-1-phenethylcarbamoyl-2-phenyl-ethyl)-amide] |

— BindingDB's records for doi:10.1021/jm0208119 (Westfälische Wilhelms-Universität Münster, 2002)
